Key:
Experiment in all cases: relative viability (nuclei count vs DMSO), 5 days (fraction); higher = more cells survive
Trametinib + Tozasertib = compound: CC(=O)Nc1cccc(-n2c(=O)n(C3CC3)c(=O)c3c(Nc4ccc(I)cc4F)n(C)c(=O)c(C)c32)c1 [Trametinib] + Cc1cc(Nc2cc(N3CCN(C)CC3)nc(Sc3ccc(NC(=O)C4CC4)cc3)n2)n[nH]1 [Tozasertib] (partner 0.1 µM)
Procedure, shortened: (§1)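 Values are medians from duplicate plates. Each reflects relative viability, defined as the nuclei count of treated wells over that of vehicle wells. Lung cancer cell lines in 1536-well plates were pin-tool dosed one day after seeding with one drug alone or with a fixed anchor-drug dose plus five library-drug doses (not always all listed) in √10 steps, then fixed, stained and imaged at 4× after 5 days.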

[1] = compound: CN1C=C(C2=CC=CC=C21)/C=C\3/C4=C(C=CC=N4)NC3=O + NC(=O)Nc1cc(-c2cccc(F)c2)sc1C(=O)N[C@H]1CCCNC1 [AZD7762] (partner 0.2 µM)
Procedure, shortened: as §1

[2] = compound: CN1C=C(C2=CC=CC=C21)/C=C\3/C4=C(C=CC=N4)NC3=O + CCNC(=O)c1noc(-c2cc(C(C)C)c(O)cc2O)c1-c1ccc(CN2CCOCC2)cc1 [Luminespib] (partner 0.01 µM)
Procedure, shortened: as §1

Trametinib + Navitoclax = compound: CC(=O)Nc1cccc(-n2c(=O)n(C3CC3)c(=O)c3c(Nc4ccc(I)cc4F)n(C)c(=O)c(C)c32)c1 [Trametinib] + CC1(C)CCC(c2ccc(Cl)cc2)=C(CN2CCN(c3ccc(C(=O)NS(=O)(=O)c4ccc(N[C@H](CCN5CCOCC5)CSc5ccccc5)c(S(=O)(=O)C(F)(F)F)c4)cc3)CC2)C1 [Navitoclax] (partner 0.5 µM)
Procedure, shortened: as §1

Row | Cell Line | relative viability (Trametinib + Tozasertib; first compound 0.0025 µM) | relative viability (Trametinib + Tozasertib; first compound 0.007906 µM) | relative viability (Trametinib + Tozasertib; first compound 0.025 µM) | relative viability (Trametinib + Tozasertib; first compound 0.07906 µM) | relative viability (Trametinib + Tozasertib; first compound 0.25 µM) | relative viability ([1]; first compound 0.02 µM) | relative viability ([1]; first compound 0.06325 µM) | relative viability ([1]; first compound 0.2 µM) | relative viability ([1]; first compound 0.6325 µM) | relative viability ([1]; first compound 2 µM) | relative viability ([2]; first compound 0.02 µM) | relative viability ([2]; first compound 0.06325 µM) | relative viability ([2]; first compound 0.2 µM) | relative viability ([2]; first compound 0.6325 µM) | relative viability ([2]; first compound 2 µM) | relative viability (Trametinib + Navitoclax; first compound 0.0025 µM) | relative viability (Trametinib + Navitoclax; first compound 0.007906 µM) | relative viability (Trametinib + Navitoclax; first compound 0.025 µM) | relative viability (Trametinib + Navitoclax; first compound 0.07906 µM) | relative viability (Trametinib + Navitoclax; first compound 0.25 µM)
1 | NCI-H3122 | 0.367 | 0.322 | 0.183 | 0.217 | 0.142 | 0.85 | 0.953 | 0.845 | 1.04 | 1.07 | 0.0819 | 0.0768 | 0.0923 | 0.0892 | 0.0964 | 0.937 | 0.867 | 0.508 | 0.548 | 0.435
2 | PC-3 [JPC-3] | 0.864 | 0.742 | 0.795 | 0.629 | 0.563 | 0.811 | 0.801 | 0.752 | 0.819 | 0.701 | 0.628 | 0.595 | 0.647 | 0.682 | 0.839 | 0.815 | 0.793 | 0.709 | 0.705 | 0.455
3 | PC-14 | 0.508 | 0.527 | 0.46 | 0.364 | 0.156 | 0.254 | 0.307 | 0.19 | 0.306 | 0.264 | 0.212 | 0.138 | – | 0.173 | 0.135 | 0.99 | 1.05 | 0.978 | 0.882 | 0.452
4 | RERF-LC-KJ | 0.493 | 0.545 | 0.539 | 0.509 | 0.387 | 1.03 | 0.96 | 0.805 | 1.01 | 0.928 | 1.21 | 1.14 | 1.22 | 1.24 | 1.37 | 0.948 | 1.09 | 0.968 | 0.966 | 0.717

Source: the supplement of paper PMC10307832
